# US8603550B1, “Compositions for topical treatment” (priority 2013, dated 2013)
# Legend:
# [1] = tested on: Staphylococcus aureus ATCC 6538 (MSSA); experiment: Zone of inhibition test (agar well); type: cell-based; conditions: S. aureus ATCC 6538; 7 mm well, about 0.2 ml product, 37° C., 24 hours
# Description: (§1) An overnight culture of the test organism is diluted to 0.40 OD at 600 nm and then further diluted 10^−2 to obtain approximately 3×10^6 CFU/ml for the inoculation of TSA or SDA plates as follows: a 0.5 ml volume is spread across the surface of a sterile agar plate and allowed to dry. A 7 mm well is made in the center of the agar plate and approximately 0.2 ml of product is pipetted into the well. Additionally, Finipil is tested against S. aureus. The plates are incubated at 37° C. for 24 hours and the zones of inhibition are determined by measuring the diameter of the clear circular area around the product filled well.
# (§2) *Becton Dickinson BBL Cefoxitin 30 microgram Sensi-Disk® sensitivity disks will be used to indicate susceptibility to Methicillin
# [2] = tested on: Staphylococcus aureus ATCC 33592 (MRSA); experiment: Zone of inhibition test (agar well); type: cell-based; conditions: S. aureus ATCC 33592 (methicillin resistant); 7 mm well, 37° C., 24 hours
# Description: as §1, §2
compound,measurement,setting,value
"CO[C@@]1(NC(=O)Cc2cccs2)C(=O)N2C(C(=O)O)=C(COC(N)=O)CS[C@@H]21 [Cefoxitin disk, Cefoxitin]",Zone of inhibition (diameter),[1],33 mm
same,Zone of inhibition (diameter),[2],10 mm
